Results taken from patent publication US20030070184A1, “LIGANDS FOR DISCOIDIN DOMAIN RECEPTOR TYROSINE KINASES AND COMPLEXES THEREOF” (priority 1999, published 2003).
Where a SMILES comes first, the peptide text is derived from it. [ ]: non-standard residue; d: D form. pY = N[C@@H](Cc1ccc(OP(=O)(O)O)cc1)C(=O)O

Assays:
DDR1b = molecular target: T1, DDR1b (Homo sapiens, UniProt Q08345); experiment: Tyrosine phosphorylation of endogenous DDR1b in carcinoma cells (T-47D; A431), immunoprecipitation and anti-phosphotyrosine blot; type: cell-based; conditions: PDGF or EGF 5 min, collagen type I overnight
T1 construct: endogenous in cells; host or cells: T-47D human mammary carcinoma cells (A431 also named)
From the text: To investigate the effects of collagen on cells that express endogenous DDR tyrosine kinases, the mammary carcinoma cell line T-47D was employed. Previous results have shown that DDR1 is highly expressed in human carcinoma cell lines, in particular, the breast cancer cell lines BT-20, MDA-MB-175 and T-47D (1) (Perez et al., 1996). […] The time course of endogenous DDR1b tyrosine phosphorylation in T-47D cells was even slower than in 293 cells, with maximal activation being achieved only after stimulation for 18 hours.
To further investigate the role of different types of collagen in the activation of DDR1 and DDR2, collagen types I, II, III and V purified from human placenta and collagen type II from bovine tracheal cartilage were obtained. To test their ability to induce receptor tyrosine phosphorylation, 293 cells overexpressing DDR1 or DDR2 were employed. […] The various types of collagen were also tested for their ability to stimulate tyrosine phosphorylation of endogenous DDR1b present in T-47D cells. For this purpose, DDR1b was immunoprecipitated from lysates of stimulated T-47D cells and analyzed by Western blotting with anti-phosphotyrosine antibodies. […] As previously shown, DDR1 tyrosine phosphorylation could also be activated by treating cells with 1 mM orthovanadate, an inhibitor of tyrosine phosphatases. Furthermore, gelatin which contains heat denatured collagen was tested for its capacity to induce DDR1b tyrosine phosphorylation.
Integrins of the type α1β1 and α2β1 have long been known to be receptors for collagen. Therefore, tests were conducted to determine if these integrins are somehow involved in the activation of DDR1b. The mammary carcinoma cell line T-47D, which endogenously expresses the b-isoform of DDR1, was used. Monoclonal antibodies directed against the extracellular domains of integrins can block binding to collagen and therefore signaling of integrins. T-47D cells were treated with antibody A2-IIE10 against α2-integrin and antibody DE9 against β1-integrin (both from Upstate Biotechnology) in the absence or presence of 10 μg/ml collagen type I overnight. DDR1b or Shc were immunoprecipitated from cellular lysates and analyzed by Western blotting with antiphosphotyrosine antibody.
DDR1b and DDR2 were transfected into 293 cells and were stimulated with 10 µg/ml mouse collagen type I for different periods of time. (FIG. 9A and FIG. 9B) Total cellular lysates were probed with antiphosphotyrosine antibody. Maximal activation is seen 90 min after stimulation of DDR1b (FIG. 9A) and DDR2 (FIG. 9B). (FIG. 9C) Human mammary carcinoma T-47D cells were cultivated on 10 cm dishes to confluence and starved in 0.5% serum overnight. Cells were stimulated with collagen type I for various periods of time and lysed. DDR1b was immunoprecipitated from the lysates and analyzed by Western blotting with antiphosphotyrosine antibody. Maximal phosphorylation of DDR1b is seen after stimulation for 18 h. An unidentified, tyrosine phosphorylated protein with an apparent molecular weight of 115 kDa is copurified in the immunoprecipitations. […] Prolonged stimulation with collagen increases the processing of DDR1b in T-47D cells, indicated by an additional 62 kDa band. (FIGS. 9E and 9F) DDR1b was immunoprecipitated from overexpressing 293 cells (E) and T-47D (FIG. 9F) cells and subjected to an in vitro kinase reaction. The incorporation of [^32P]-phosphate is monitored by SDS-PAGE followed by autoradiograpy.

MAPK = MAPK activation (mobility shift) in T-47D or HT 1080-DDR2 cells; type: cell-based, human; conditions: T-47D or HT 1080 overexpressing DDR2; PDGF or EGF 5 min, collagen type I overnight
Procedure: T-47D or HT 1080 overexpressing DDR2 cells were stimulated with PDGF or EGF for 5 min, with collagen type I overnight and with a combination of EGF/collagen or PDGF/collagen. […] Furthermore, activation of MAPK by EGF is not influenced by simultaneous activation of DDR receptors.

Shc PTB domain = molecular target: T2, Shc PTB domain (Homo sapiens, UniProt P29353); experiment: Surface plasmon resonance competition: GST-Shc PTB domain binding to immobilized middle T antigen phosphopeptide; conditions: BIAcore, soluble competing phosphopeptide; read-out: IC50, inhibition of binding of the Shc PTB domain to the middle T antigen phosphopeptide
T2 construct: the PTB domain fusion construct comprises amino acids 1-225 of human p52 Shc; made in house; host or cells: E. coli
T2 sequence (P29353 1-225 isoform P29353-2): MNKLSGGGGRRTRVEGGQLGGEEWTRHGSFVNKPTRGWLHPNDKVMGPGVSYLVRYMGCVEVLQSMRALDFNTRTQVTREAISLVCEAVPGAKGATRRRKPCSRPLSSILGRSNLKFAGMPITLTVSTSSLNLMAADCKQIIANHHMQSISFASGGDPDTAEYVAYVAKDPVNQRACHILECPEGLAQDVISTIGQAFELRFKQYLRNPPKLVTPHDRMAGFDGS
Procedure: Surface plasmon resonance—experiments were done with a BIAcore instrument (Pharmacia). A phosphopeptide corresponding to the NPXY sequence in the polyomavirus middle T antigen (mT) (LSLLSNPTpYSVNSK) was absorbed to the surface of a biosensor chip. Binding of soluble GST-Shc PTB domain fusion protein to the mT peptide was measured in the presence or absence of competing soluble phosphopeptides based on the sequences around Tyr 513 of DDR1b or Tyr 490 of the NGFR (HIIENPQpYFSD) (21).
Experiments were done with a BIAcore instrument (Pharmacia). A phosphopeptide corresponding to the NPXY sequence in the polyomavirus middle T antigen (LSLLSNPTpYSVMRSK) was absorbed to the surface of a biosensor chip. Binding of soluble GST-Shc PTB domain fusion protein to the middle T peptide was measured in presence or absence of competing soluble phosphopeptides based on the sequences around tyrosine 513 of DDR1b (ALLLSNPApYRLLLA) or tyrosine 490 of the NGF receptor (HIIENPQpYFSD).

[1] = molecular target: T3, Shc PTB domain binding to DDR1b (Homo sapiens, UniProt P29353); experiment: GST-Shc PTB pull-down of tyrosine phosphorylated DDR1b from 293 lysates, competition by phosphopeptide; conditions: lysates of transfected, orthovanadate-treated 293 cells
T3 construct: the PTB domain fusion construct comprises amino acids 1-225 of human p52 Shc; made in house; host or cells: GST-Shc PTB: E. coli; DDR1b: lysate of transiently transfected, orthovanadate-treated 293 cells
T3 sequence (P29353 1-225 isoform P29353-2): T2 sequence (P29353 1-225 isoform P29353-2)
Procedure: The results presented above raise the possibility that the Shc PTB domain binds to phosphorylated Tyr 513, which lies within the motif LLSNPAY in the DDR1b juxtamembrane insert. To test whether phosphorylation of Tyr 513 might form a PTB-binding site, a 14-mer phosphopeptide with the sequence ALLLSNPApYRLLLA was synthesized, corresponding to residues 505-518 of DDR1b. The ability of this phosphopeptide to bind the Shc PTB domain was analysed using a competition assay, in which the capacity of GST-Shc PTB fusion protein to bind tyrosine phosphorylated DDR1b from lysates of transfected 293 cells was measured in the presence of increasing amounts of the Tyr 513 phosphopeptide. […] To quantitate this interaction more precisely, surface plasmon resonance technology was used, in which soluble DDR1b phosphopeptide was employed to inhibit binding of the GST-Shc PTB fusion protein to a polyomavirus middle T antigen phosphopeptide, immobilized on a biosensor chip (21).
FIGS. 2A and 2B. Phosphorylation of Tyr 513 in the MCK10b (DDR1b) juxtamembrane insert forms a Shc PTB-binding site. […] Bound protein was detected by immunoblotting with antibodies to MCK10. […]

MMP-1 = MMP-1 expression in HT 1080 cells (Western blot of conditioned media); type: cell-based, human; conditions: collagen type I 10 μg/ml, or TPA
Procedure: The full length cDNA of DDR2 was stabilely expressed in HT 1080 cells using a retroviral expression construct (pLXSN). Neomycin resistant clones were tested for DDR2 expression. Parental and DDR2 overexpressing cells were cultivated in serum free medium and stimulated with 10 μg/ml collagen type I for various periods of time. The conditioned medium was 20-fold concentrated and analyzed for the presence of MMP-1 by Western blotting with the monoclonal antibody 41-IE5 (Oncogene Research Products; Cambridge, Mass.).

T1 sequence (Q08345 19-913): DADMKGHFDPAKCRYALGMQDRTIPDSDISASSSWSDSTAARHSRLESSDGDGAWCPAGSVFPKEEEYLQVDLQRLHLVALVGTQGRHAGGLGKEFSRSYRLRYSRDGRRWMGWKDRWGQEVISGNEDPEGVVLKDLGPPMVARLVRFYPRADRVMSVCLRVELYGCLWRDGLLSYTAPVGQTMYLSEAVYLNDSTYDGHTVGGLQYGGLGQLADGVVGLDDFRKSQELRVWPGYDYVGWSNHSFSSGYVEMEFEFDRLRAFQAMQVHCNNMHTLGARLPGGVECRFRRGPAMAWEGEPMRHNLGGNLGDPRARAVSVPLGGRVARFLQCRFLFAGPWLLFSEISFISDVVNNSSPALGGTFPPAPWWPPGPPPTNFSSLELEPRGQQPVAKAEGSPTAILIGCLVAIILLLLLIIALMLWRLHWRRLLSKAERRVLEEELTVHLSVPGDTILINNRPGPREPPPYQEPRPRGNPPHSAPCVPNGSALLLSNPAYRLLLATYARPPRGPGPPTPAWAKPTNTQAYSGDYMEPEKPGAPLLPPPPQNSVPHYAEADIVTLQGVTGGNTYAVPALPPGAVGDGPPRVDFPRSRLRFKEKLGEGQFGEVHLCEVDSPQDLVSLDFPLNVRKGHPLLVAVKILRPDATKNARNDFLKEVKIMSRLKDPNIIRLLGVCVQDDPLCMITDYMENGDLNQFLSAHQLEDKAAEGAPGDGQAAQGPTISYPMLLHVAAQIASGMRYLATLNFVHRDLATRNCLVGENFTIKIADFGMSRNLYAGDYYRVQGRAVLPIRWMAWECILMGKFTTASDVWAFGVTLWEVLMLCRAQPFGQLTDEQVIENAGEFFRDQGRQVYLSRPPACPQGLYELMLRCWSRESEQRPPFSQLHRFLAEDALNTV

PDGF [reference compound]
activation of DDR1b in T-47D cells (DDR1b): not
MAPK activation (MAPK): not

CC(C)C[C@H](NC(=O)[C@H](C)N)C(=O)N[C@@H](CC(C)C)C(=O)N[C@@H](CC(C)C)C(=O)N[C@@H](CO)C(=O)N[C@@H](CC(N)=O)C(=O)N1CCC[C@H]1C(=O)N[C@@H](C)C(=O)N[C@@H](Cc1ccc(OP(=O)(O)O)cc1)C(=O)N[C@@H](CCCNC(=N)N)C(=O)N[C@@H](CC(C)C)C(=O)N[C@@H](CC(C)C)C(=O)N[C@@H](CC(C)C)C(=O)N[C@@H](C)C(=O)O [DDR1b phosphopeptide, ALLLSNPApYRLLLA] (H-ALLLSNPA[pY]RLLLA-OH; N-terminus and C-terminus assumed)
IC50 (Shc PTB domain): ~800 nM
phosphopeptide concentration for full inhibition of Shc PTB binding to DDR1b [1]: 2 µM
phosphopeptide concentration that inhibited binding of the Shc PTB domain to DDR1b [1]: 100 nM

CCCCCCCCCCCCCC(=O)O[C@@H]1[C@@H](C)[C@@]2(O)[C@@H](C=C(CO)C[C@]3(O)C(=O)C(C)=C[C@@H]23)[C@@H]2C(C)(C)[C@]12OC(C)=O [TPA, phorbol 12-myristate 13-acetate]
expression of MMP-1 in HT 1080 cells overexpressing DDR2 (MMP-1; 4 days): induced
expression of MMP-1 in parental HT 1080 cells (MMP-1): induced
